From patent US20250108036A1, “COMPOSITIONS FOR REMOVING SENESCENT CELLS AND USES THEREOF” (LIFECEUTIX CO., LTD., priority 2021, published 2025)
Read-outs that look alike come from different tables or passages of the source.

Columns and labels:
Format in all cases: cell-based, human
HMGN1 [1] = test: HMGN1 ELISA in culture medium of A549 cancer cells (Example 12, Table 66); details: Homo sapiens; for activity at 90 µM: test compound 90 μM
[2] = test system: foreskin cells in which senescence was induced by doxorubicin; test: CellTiter-Glo cell viability of doxorubicin-induced senescent foreskin cells (Examples 1-2, 10, 11, 13; Tables 4, 63, 65); details: Homo sapiens, 72 h, read-out: Survival (%); for viability at 30 µM: 30 μM test compound; for viability at 90 µM: 90 μM test compound; for viability at […]: […] test compound
Experimental: After 3 days, cell viability was measured using CellTiter-Glo Luminescent Cell Viability Assay (Promega) or light microscopy.

A549 = test: CellTiter-Glo cell viability of senescent A549 cancer cells (Example 12, Table 67); details: Homo sapiens; for viability at 90 µM: 90 μM test compound
HMGN1 [3] = test: HMGN1 ELISA in culture medium of foreskin cells (Examples 10, 11; Tables 62, 63, 64); details: Homo sapiens; for activity at 90 µM: 90 μM test compound; for activity at 30 µM: read-out: HMGN1
[4] = A549, doxorubicin-induced senescent A549 cells, ELISA, DMSO = 100, read-out: HMGN1 (amount of HMGN1 secreted in the cell culture)
[5] = 1.1 μM test compound, doxorubicin-induced senescent foreskin cells, CellTiter-Glo, 0 μM = 100
[6] = 10 μM test compound, doxorubicin-induced senescent foreskin cells, CellTiter-Glo, 0 μM = 100
[7] = doxorubicin-induced senescent foreskin cells, CellTiter-Glo, 0 μM = 100
[8] = A549, doxorubicin-induced senescent A549 cancer cells, 1.1 μM test compound, CellTiter-Glo, read-out: Survival (%)
[9] = A549, doxorubicin-induced senescent A549 cancer cells, 10 μM test compound, CellTiter-Glo, read-out: Survival (%)
[10] = A549, doxorubicin-induced senescent A549 cancer cells, 30 μM test compound, CellTiter-Glo, read-out: Survival (%)
[11] = A549, doxorubicin-induced senescent A549 cancer cells, CellTiter-Glo, read-out: Survival (%)
[12] = doxorubicin-treated foreskin cells, DMSO = 100
[13] = A549, doxorubicin-induced senescent A549 cells, test compound 30 μM, ELISA, DMSO = 100, read-out: HMGN1 (amount of HMGN1 secreted in the cell culture)
[14] = 30 μM test compound, doxorubicin-treated foreskin cells, DMSO = 100

`CN(C)c1nc(N(C)C)nc(N(C)C)n1` [LX-501, Altretamine, reference compound] showed an activity at 90 µM (HMGN1 [1]; [4]) of 233%, a viability at 1.1 µM [2, 5] of 103% and a viability at 10 µM [2, 6] of 98.9%. It also gave a viability at 30 µM [2, 7] of 85.2%, a viability at 90 µM [2, 7] of 53.7% and a viability at […] [2, 7] of 105%. The viability at 1.1 µM (A549; [8]) was 99.8%, the viability at 10 µM (A549; [9]) was 103% and the viability at 30 µM (A549; [10]) was 99.5%. The viability at 90 µM (A549; [11]) was 13.1% and the activity at 90 µM (HMGN1 [3]; [12]) was 168%.

With `CCCCS[C@@H]1O[C@@H]2O[C@@]3(C)CCC4[C@H](C)CCC([C@H]1C)[C@]42OO3` (stereo partly drawn) [LX-503] the activity at 30 µM (HMGN1 [1]; [13]) was 333%, the viability at 1.1 µM [2, 5] was 25.1% and the viability at 1.1 µM (A549; [8]) was 34.4%. It also gave an activity at 30 µM (HMGN1 [3]; [14]) of 284%.

For `C[C@H]1[C@H](SCc2ccccc2)O[C@@H]2O[C@@]3(C)CC[C@H]4[C@H](C)CC[C@@H]1[C@@]24OO3` [LX-505], the activity at 30 µM (HMGN1 [1]; [13]) was 317%, the viability at 1.1 µM [2, 5] was 35.2% and the viability at […] [2, 7] was 0.4%. It also gave a viability at 1.1 µM (A549; [8]) of 51.1% and an activity at 30 µM (HMGN1 [3]; [14]) of 299%.

`C[C@@H]1CC[C@H]2[C@@H](C)C(=O)O[C@@H]3O[C@@]4(C)CC[C@@H]1[C@]32OO4` [LX-506, Artemisinin, reference compound] showed an activity at 90 µM (HMGN1 [1]; [4]) of 169%, a viability at 1.1 µM [2, 5] of 101% and a viability at 10 µM [2, 6] of 91%. For the same compound, the viability at 30 µM [2, 7] was 78%, the viability at 90 µM [2, 7] was 33.2% and the viability at […] [2, 7] was 97.2%. The viability at 1.1 µM (A549; [8]) was 109%, the viability at 10 µM (A549; [9]) was 93.8% and the viability at 30 µM (A549; [10]) was 91.4%. For the same compound, the viability at 90 µM (A549; [11]) was 44.2% and the activity at 90 µM (HMGN1 [3]; [12]) was 169%.

`C=C1C(=O)O[C@H]2C1CC/C(COC(=O)/C=C/c1c(OC)cccc1OC)=C\CCC1(C)O[C@H]21` (stereo partly drawn) [LX-601] was tested, and the activity at 30 µM (HMGN1 [1]; [13]) was 318%, the viability at 1.1 µM [2, 5] was 6.1% and the viability at […] [2, 7] was 3.3%. The viability at 1.1 µM (A549; [8]) was 13.8% and the activity at 30 µM (HMGN1 [3]; [14]) was 293%.

Work on `O=S(=O)(NC1CCCCC1)c1ccc2c(c1)C(=NO)c1cc(S(=O)(=O)NC3CCCCC3)ccc1-2` [LX-602] yielded an activity at 30 µM (HMGN1 [1]; [13]) of 248%, a viability at 1.1 µM [2, 5] of 79% and a viability at 10 µM [2, 6] of 25.9%. For the same compound, the viability at 30 µM [2, 7] was 16.1%, the viability at […] [2, 7] was 55.2% and the viability at 1.1 µM (A549; [8]) was 102%. For the same compound, the viability at 10 µM (A549; [9]) was 99%, the viability at 30 µM (A549; [10]) was 41.8% and the viability at 90 µM (A549; [11]) was 2.7%. For the same compound, the activity at 30 µM (HMGN1 [3]; [14]) was 248%.

With `CC1(CCO)CC2(CCC(C(C)(C)C)CC2)OO1` (stereo not drawn) [LX-603] the activity at 30 µM (HMGN1 [1]; [13]) was 332%, the viability at 1.1 µM [2, 5] was 91.7% and the viability at 10 µM [2, 6] was 51.6%. The viability at 30 µM [2, 7] was 16.8%, the viability at […] [2, 7] was 74.1% and the viability at 1.1 µM (A549; [8]) was 94.1%. The viability at 10 µM (A549; [9]) was 53.6%, the viability at 30 µM (A549; [10]) was 17.5% and the activity at 30 µM (HMGN1 [3]; [14]) was 263%.

Work on `C=C1C(=O)C2CCN1CC2` [LX-702, 2-Methylene-3-quinuclidinone] yielded an activity at 30 µM (HMGN1 [1]; A549, read-out: HMGN1 (amount of HMGN1 secreted in the cell culture)) of 305%, a viability at 1.1 µM [2] of 82.1% and a viability at 10 µM [2] of 6.5%. For the same compound, the viability at 1.1 µM (A549; A549, read-out: Survival (%)) was 87.3%, the viability at 10 µM (A549; A549, read-out: Survival (%)) was 33.4% and the viability at 30 µM (A549; A549, read-out: Survival (%)) was 3%. For the same compound, the activity at 30 µM (HMGN1 [3]) was 278%.

In the case of `CN(C)C(=S)N/N=C1\CCCc2cccnc21` [LX-802, 2-(6,7-Dihydroquinolin-8(5H)-ylidene)-N^4,N^4-dimethylhydrazine-1-carbothioamide], the activity at 30 µM (HMGN1 [1]; [13]) is reported as 329%, the viability at 1.1 µM [2, 5] is reported as 42.7% and the viability at […] [2, 7] is reported as 5.7%. For the same compound, the viability at 1.1 µM (A549; [8]) was 62.7% and the activity at 30 µM (HMGN1 [3]; [14]) was 301%.

With `CCn1c2ccccc2c2cc(CNC)ccc21` [LX-901] the activity at 90 µM (HMGN1 [1]; [4]) was 255%, the viability at 1.1 µM [2, 5] was 99.5% and the viability at 10 µM [2, 6] was 67.5%. The viability at 30 µM [2, 7] was 15.8%, the viability at […] [2, 7] was 98.4% and the viability at 1.1 µM (A549; [8]) was 97.8%. The viability at 10 µM (A549; [9]) was 82.7%, the viability at 30 µM (A549; [10]) was 34.8% and the viability at 90 µM (A549; [11]) was 11.7%. It also gave an activity at 30 µM (HMGN1 [3]; [14]) of 257%.

Work on `CCn1c2ccccc2c2cc(NC(=O)COC(=O)C3CCC(=O)N3)ccc21` (stereo not drawn) [LX-902] yielded an activity at 90 µM (HMGN1 [1]; [4]) of 234%, a viability at 1.1 µM [2, 5] of 97.9% and a viability at 10 µM [2, 6] of 72.8%. The viability at 30 µM [2, 7] was 23.9%, the viability at […] [2, 7] was 91.6% and the viability at 1.1 µM (A549; [8]) was 94.6%. It also gave a viability at 10 µM (A549; [9]) of 88.2%, a viability at 30 µM (A549; [10]) of 62.7% and a viability at 90 µM (A549; [11]) of 25.8%. It also gave an activity at 30 µM (HMGN1 [3]; [14]) of 268%.
